Experimental data taken from the supplement of paper PMC10307832.

Tests used:
Experiment in all cases: relative viability (nuclei count vs DMSO), 5 days (fraction); higher = more cells survive
[1] = tested on: NCI-H1792
Procedure, shortened: (§1)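 Lung cancer cell lines were seeded in 1536-well plates and dosed by pin tool the next day, with either a single drug or a fixed anchor-drug dose combined with five library-drug doses (not always all listed) spaced in √10 steps. Five days later, one step fixed the cells and stained their nuclei (final 0.05% Triton X-100, 1% formaldehyde, 1 ug/ml Hoechst), and nuclei were counted on 4× images. Relative viability is the nuclei count in treated wells divided by the count in vehicle wells, and each value is the median of duplicate plates.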

[2] = tested on: HCC-366
Procedure, shortened: as §1

[3] = tested on: NCI-H1993
Procedure, shortened: as §1

[4] = tested on: NCI-H2170
Procedure, shortened: as §1

[5] = tested on: NCI-H522
Procedure, shortened: as §1

[6] = tested on: HARA
Procedure, shortened: as §1

[7] = tested on: NCI-H1355
Procedure, shortened: as §1

[8] = tested on: LOU-NH91
Procedure, shortened: as §1

[9] = tested on: NCI-H661
Procedure, shortened: as §1

[10] = tested on: NCI-H2087
Procedure, shortened: as §1

[11] = tested on: NCI-H1395
Procedure, shortened: as §1

[12] = tested on: NCI-H2009
Procedure, shortened: as §1

[13] = tested on: SK-MES-1
Procedure, shortened: as §1

[14] = tested on: BEN
Procedure, shortened: as §1

[15] = tested on: EKVX
Procedure, shortened: as §1

[16] = tested on: NCI-H1734
Procedure, shortened: as §1

[17] = tested on: NCI-H1437
Procedure, shortened: as §1

[18] = tested on: HCC-827
Procedure, shortened: as §1

[19] = tested on: NCI-H2342
Procedure, shortened: as §1

[20] = tested on: NCI-H647
Procedure, shortened: as §1

[21] = tested on: SK-LU-1
Procedure, shortened: as §1

[22] = tested on: NCI-H2405
Procedure, shortened: as §1

Q: For `O=c1cc(N2CCOCC2)oc2c(-c3cccc4c3sc3ccccc34)cccc12` + Nc1ncn([C@H]2C[C@H](O)[C@@H](CO)O2)c(=O)n1 [Decitabine] (partner 2 µM), which relative viability ([1]; first compound 0.01 µM) is on record?
A: 0.581

Q: What about the relative viability ([1]; first compound 0.03162 µM) of the same compound?
A: 0.531

Q: What about the relative viability ([1]; first compound 0.3162 µM) of the same compound?
A: 0.556

Q: What about the relative viability ([1]; first compound 1 µM) of the same compound?
A: 0.561

Q: What about the relative viability ([2]; first compound 0.01 µM) of the same compound?
A: 0.331

Q: And the relative viability ([2]; first compound 0.03162 µM)?
A: 0.365

Q: And the relative viability ([2]; first compound 0.1 µM)?
A: 0.413

Q: And the relative viability ([2]; first compound 0.3162 µM)?
A: 0.348

Q: What about the relative viability ([2]; first compound 1 µM) of the same compound?
A: 0.296

Q: And the relative viability ([3]; first compound 0.01 µM)?
A: 0.731

Q: What about the relative viability ([3]; first compound 0.03162 µM) of the same compound?
A: 0.639

Q: And the relative viability ([3]; first compound 0.1 µM)?
A: 0.569

Q: What about the relative viability ([3]; first compound 0.3162 µM) of the same compound?
A: 0.575

Q: What about the relative viability ([3]; first compound 1 µM) of the same compound?
A: 0.585

Q: What about the relative viability ([4]; first compound 0.01 µM) of the same compound?
A: 0.472

Q: What about the relative viability ([4]; first compound 0.03162 µM) of the same compound?
A: 0.447

Q: What about the relative viability ([4]; first compound 0.1 µM) of the same compound?
A: 0.475

Q: What about the relative viability ([4]; first compound 0.3162 µM) of the same compound?
A: 0.457

Q: What about the relative viability ([4]; first compound 1 µM) of the same compound?
A: 0.461

Q: What about the relative viability ([5]; first compound 0.01 µM) of the same compound?
A: 0.709

Q: What about the relative viability ([5]; first compound 0.03162 µM) of the same compound?
A: 0.662

Q: And the relative viability ([5]; first compound 0.1 µM)?
A: 0.669

Q: What about the relative viability ([5]; first compound 0.3162 µM) of the same compound?
A: 0.649

Q: What about the relative viability ([5]; first compound 1 µM) of the same compound?
A: 0.696

Q: And the relative viability ([6]; first compound 0.01 µM)?
A: 0.536

Q: And the relative viability ([6]; first compound 0.03162 µM)?
A: 0.466

Q: What about the relative viability ([6]; first compound 0.1 µM) of the same compound?
A: 0.617

Q: What about the relative viability ([6]; first compound 0.3162 µM) of the same compound?
A: 0.481

Q: What about the relative viability ([6]; first compound 1 µM) of the same compound?
A: 0.476

Q: And the relative viability ([7]; first compound 0.01 µM)?
A: 0.377

Q: What about the relative viability ([7]; first compound 0.03162 µM) of the same compound?
A: 0.339

Q: What about the relative viability ([7]; first compound 0.1 µM) of the same compound?
A: 0.409

Q: And the relative viability ([7]; first compound 0.3162 µM)?
A: 0.351

Q: And the relative viability ([7]; first compound 1 µM)?
A: 0.352

Q: And the relative viability ([8]; first compound 0.01 µM)?
A: 0.774

Q: And the relative viability ([8]; first compound 0.03162 µM)?
A: 0.794

Q: What about the relative viability ([8]; first compound 0.1 µM) of the same compound?
A: 0.83

Q: And the relative viability ([8]; first compound 0.3162 µM)?
A: 0.827

Q: What about the relative viability ([8]; first compound 1 µM) of the same compound?
A: 0.784

Q: And the relative viability ([9]; first compound 0.01 µM)?
A: 0.563

Q: And the relative viability ([9]; first compound 0.03162 µM)?
A: 0.53

Q: And the relative viability ([9]; first compound 0.1 µM)?
A: 0.599

Q: And the relative viability ([9]; first compound 0.3162 µM)?
A: 0.535

Q: And the relative viability ([9]; first compound 1 µM)?
A: 0.587

Q: And the relative viability ([10]; first compound 0.01 µM)?
A: 0.261

Q: And the relative viability ([10]; first compound 0.03162 µM)?
A: 0.257

Q: And the relative viability ([10]; first compound 0.1 µM)?
A: 0.336

Q: What about the relative viability ([10]; first compound 0.3162 µM) of the same compound?
A: 0.306

Q: What about the relative viability ([10]; first compound 1 µM) of the same compound?
A: 0.297

Q: What about the relative viability ([11]; first compound 0.03162 µM) of the same compound?
A: 0.772

Q: And the relative viability ([11]; first compound 0.1 µM)?
A: 0.656

Q: And the relative viability ([11]; first compound 0.3162 µM)?
A: 0.701

Q: And the relative viability ([11]; first compound 1 µM)?
A: 0.692

Q: What about the relative viability ([12]; first compound 0.01 µM) of the same compound?
A: 0.368

Q: And the relative viability ([12]; first compound 0.03162 µM)?
A: 0.412

Q: What about the relative viability ([12]; first compound 0.1 µM) of the same compound?
A: 0.332

Q: And the relative viability ([12]; first compound 0.3162 µM)?
A: 0.368

Q: And the relative viability ([12]; first compound 1 µM)?
A: 0.399

Q: And the relative viability ([13]; first compound 0.01 µM)?
A: 0.419

Q: What about the relative viability ([13]; first compound 0.03162 µM) of the same compound?
A: 0.43

Q: What about the relative viability ([13]; first compound 0.1 µM) of the same compound?
A: 0.366

Q: What about the relative viability ([13]; first compound 0.3162 µM) of the same compound?
A: 0.351

Q: What about the relative viability ([13]; first compound 1 µM) of the same compound?
A: 0.365

Q: What about the relative viability ([14]; first compound 0.01 µM) of the same compound?
A: 0.73

Q: What about the relative viability ([14]; first compound 0.03162 µM) of the same compound?
A: 0.748

Q: What about the relative viability ([14]; first compound 0.1 µM) of the same compound?
A: 0.589

Q: What about the relative viability ([14]; first compound 0.3162 µM) of the same compound?
A: 0.76

Q: What about the relative viability ([14]; first compound 1 µM) of the same compound?
A: 0.664

Q: What about the relative viability ([15]; first compound 0.01 µM) of the same compound?
A: 0.355

Q: What about the relative viability ([15]; first compound 0.03162 µM) of the same compound?
A: 0.321

Q: And the relative viability ([15]; first compound 0.1 µM)?
A: 0.37

Q: What about the relative viability ([15]; first compound 0.3162 µM) of the same compound?
A: 0.282

Q: What about the relative viability ([15]; first compound 1 µM) of the same compound?
A: 0.336

Q: And the relative viability ([16]; first compound 0.01 µM)?
A: 0.584

Q: What about the relative viability ([16]; first compound 0.03162 µM) of the same compound?
A: 0.508

Q: What about the relative viability ([16]; first compound 0.1 µM) of the same compound?
A: 0.536

Q: And the relative viability ([16]; first compound 0.3162 µM)?
A: 0.498

Q: What about the relative viability ([16]; first compound 1 µM) of the same compound?
A: 0.517

Q: And the relative viability ([17]; first compound 0.01 µM)?
A: 0.587

Q: What about the relative viability ([17]; first compound 0.03162 µM) of the same compound?
A: 0.562

Q: What about the relative viability ([17]; first compound 0.1 µM) of the same compound?
A: 0.638

Q: What about the relative viability ([17]; first compound 0.3162 µM) of the same compound?
A: 0.549

Q: And the relative viability ([17]; first compound 1 µM)?
A: 0.625

Q: And the relative viability ([18]; first compound 0.01 µM)?
A: 0.291

Q: What about the relative viability ([18]; first compound 0.03162 µM) of the same compound?
A: 0.329

Q: What about the relative viability ([18]; first compound 0.1 µM) of the same compound?
A: 0.296

Q: And the relative viability ([18]; first compound 0.3162 µM)?
A: 0.314

Q: What about the relative viability ([18]; first compound 1 µM) of the same compound?
A: 0.161

Q: And the relative viability ([19]; first compound 0.01 µM)?
A: 0.631

Q: And the relative viability ([19]; first compound 0.03162 µM)?
A: 0.652

Q: What about the relative viability ([19]; first compound 0.1 µM) of the same compound?
A: 0.774

Q: And the relative viability ([19]; first compound 0.3162 µM)?
A: 0.726

Q: What about the relative viability ([19]; first compound 1 µM) of the same compound?
A: 0.672

Q: And the relative viability ([20]; first compound 0.01 µM)?
A: 0.318

Q: What about the relative viability ([20]; first compound 0.03162 µM) of the same compound?
A: 0.356

Q: And the relative viability ([20]; first compound 0.1 µM)?
A: 0.382

Q: What about the relative viability ([20]; first compound 0.3162 µM) of the same compound?
A: 0.419

Q: And the relative viability ([20]; first compound 1 µM)?
A: 0.371

Q: And the relative viability ([21]; first compound 0.01 µM)?
A: 0.641

Q: And the relative viability ([21]; first compound 0.03162 µM)?
A: 0.621

Q: What about the relative viability ([21]; first compound 0.1 µM) of the same compound?
A: 0.596

Q: What about the relative viability ([21]; first compound 0.3162 µM) of the same compound?
A: 0.621

Q: What about the relative viability ([21]; first compound 1 µM) of the same compound?
A: 0.661

Q: And the relative viability ([22]; first compound 0.01 µM)?
A: 0.82

Q: What about the relative viability ([22]; first compound 0.03162 µM) of the same compound?
A: 0.715

Q: And the relative viability ([22]; first compound 0.1 µM)?
A: 0.812

Q: And the relative viability ([22]; first compound 0.3162 µM)?
A: 0.76

Q: What about the relative viability ([22]; first compound 1 µM) of the same compound?
A: 0.788
